Assay results from patent US9833466B2, “Treatment of leukemia with histone deacetylase inhibitors” (Acetylon Pharmaceuticals Inc., priority 2014, dated 2017).
pIC50: −log10 of the molar value. Entries after “also recorded” stand apart in the source; their conditions may differ.

Legend:
[1] = test system: MV4-11 cells; experiment: MV4-11 tumor growth and survival in Ncr nu/nu mice; assay type: in vivo
Method: Ncr nu/nu mice implanted with MV4-11 cells were treated with vehicle, azacitidine (5 mg/kg IV q3d), or azacitidine (5 mg/kg IV q3d) plus Compound A (50 mg/kg IP 5/2/5/2/5/2/5) for up to 4 weeks. (A) Tumor volume was measured twice weekly and the mean tumor volume±SD is plotted. (B) Fold tumor volume change on day 19 relative to day 1 is plotted. (C) Survival curve was plotted.

[2] = Phase I trials; cited from earlier work
[3] = test system: AML blast freshly derived from bone marrow of AML patients; experiment: Ex vivo proliferation of AML blast freshly derived from bone marrow; assay type: cell-based; conditions: Homo sapiens; 5 bone marrow samples from AML patients; flow cytometry at 96 h; single agent; read-out: median IC50, live AML cells
Method: (A-B), 5 bone marrow samples derived from AML patients were treated with increasing concentrations of azacitidine, Compound A and Compound J and live AML cells were quantified by flow cytometry at 96 h. IC50 values (A) and AUC values (B) were plotted. […] The relative potency of the three drugs are Compound J>azacitidine>Compound A, consistent with the result in FIG. 2. (C) 5 bone marrow samples derived from AML patients were treated with increasing doses of azacitidine with Compound J and live AML cells were quantified by flow cytometry at 96 h. The combination index (Comb IDX) were calculated and median Comb IDX values were plotted.

[4] = Compound A 50 mg/kg IP plus azacitidine 5 mg/kg IV q3d, vs azacitidine or vehicle alone

## O=C(CCCCCCNC(=O)c1cnc(N(c2ccccc2)c2ccccc2)nc1)NO [Compound A, 2-(diphenylamino)-N-(7-(hydroxyamino)-7-oxoheptyl)pyrimidine-5-carboxamide]
[1]; [4]
  survival: further enhanced; also recorded: increased survival in vivo
  tumor growth: further enhanced; also recorded: reduced tumor growth in vivo
[1]; Compound A plus azacitidine vs azacitidine or vehicle alone, day 19 relative to day 1
  fold tumor volume change: reduced the fold tumor volume change
[2]
  safety and tolerability: improved safety and tolerability profile
[3]
  pIC50: 5.14
